# Test results from article PMC10779433, “Bidirectional Allosteric Coupling between PIP2 Binding and the Pore of the Oncochannel TRPV6” (International Journal of Molecular Sciences, 2024).
# Like-named read-outs stand apart in the source and are kept apart here. Residues, ends and D or L forms follow the SMILES beside them. *: point of attachment. Palmitoyl = CCCCCCCCCCCCCCCC(=O)*
# Columns and labels:
# [1] = tested on: TRPV6 R492Q; test: NFAT screen, TRPV6 R492Q; assay type: cell-based, human; settings: HEK293 cells; 5 μM cis-22a, 2 h, vs DMSO
# Experimental: (§1) N-terminally TagRFP-labeled human TRPV6 (725 aa) was kindly provided by R. Bhardwaj and M. Hediger (University of Bern, Bern, Switzerland). This variant is translated from the first ATG codon and thus deviates from the non-ATG-initiated protein which is expressed in vivo (accession number NM_018646.6) by lacking 40 amino acids of the very N-terminus. For N-terminal labeling with EYFP, TRPV6 was cloned into pEYFP-C1 (Clontech) via EcoRI and SacII restriction sites. […]
# (§2) After incubation, cover slips were carefully rinsed with phenol red-free DMEM supplemented with the compound and dosage corresponding to the previous incubation, which was then also present during imaging. […] Subcellular NFAT localization of TRPV6 expressing cells was again monitored on an Axiovert 135 inverted microscope (Zeiss, Oberkochen, Germany), as described in more detail before. […] Images were analyzed using Matlab2018a, differentiating between three cell populations based on the ratio of CFP emission intensity originating from the nucleus and the cytosol, similar to Schober et al. (2019).
# [2] = tested on: TRPV6 R589A; test: NFAT screen, TRPV6 R589A; assay type: cell-based, human; settings: HEK293 cells; 5 μM cis-22a, 2 h; same for solvent control
# Experimental: as §1, §2
# [3] = tested on: TRPV6 R470A; settings: HEK293 cells, ref [47], cited from earlier work
# Excerpt: (§3) Thereby, some mutants which were investigated in our previous publications are shown again to simplify comparison with other treatments.
# [4] = tested on: TRPV6 K484A; settings: HEK293 cells, ref [62], cited from earlier work
# Excerpt: as §3
# [5] = tested on: TRPV6 R492A; test: NFAT screen, TRPV6 R492A; assay type: cell-based, human; settings: HEK293 cells; 5 μM cis-22a, 2 h; nuclear NFAT already reduced without cis-22a
# Experimental: as §1, §2
# [6] = tested on: TRPV6 F468A; test: NFAT screen, TRPV6 F468A; assay type: cell-based, human; settings: HEK293 cells; 5 μM cis-22a, 2 h; nuclear NFAT already reduced without cis-22a
# Experimental: as §1, §2
# [7] = tested on: TRPV6 K484A; test: Whole-cell patch clamp, TRPV6 K484A; assay type: cell-based, human; settings: HEK293 cells; 10 μM pal-PIP2 peptide; p < 0.05; Figure 4D
# Excerpt: (§4) N-terminally TagRFP-labeled human TRPV6 (725 aa) was kindly provided by R. Bhardwaj and M. Hediger (University of Bern, Bern, Switzerland). This variant is translated from the first ATG codon and thus deviates from the non-ATG-initiated protein which is expressed in vivo (accession number NM_018646.6) by lacking 40 amino acids of the very N-terminus. For N-terminal labeling with EYFP, TRPV6 was cloned into pEYFP-C1 (Clontech) via EcoRI and SacII restriction sites. Mutations (F468A, R470A, F472A, K484A/Q, G488R, R492A/Q, I575A, G579A, D580A/K, H582A, W583A/F, H587A, R589A, W593A, R632A/Q, R470A, W583F) were introduced using the QuickChange XL site-directed mutagenesis kit (Stratagene, San Diego, CA, USA) and Pfu DNA Polymerase (Promega, Madison, WI, USA). pTagRFP-hTRPV6 I575A was kindly provided by the lab of M. Hediger (University of Bern, Bern, Switzerland). Forward and reverse primers for site-directed mutagenesis were synthesized by Eurofins genomics GmbH (Wien, Vienna, Austria). Intactness of the constructs in terms of sequence was confirmed by sequencing (Microsynth Austria GmbH, Wien, Vienna, Austria; Eurofins genomics GmbH, Wien, Vienna, Austria). […]
# (§5) Electrophysiological experiments were performed at 20 °C to 24 °C in whole-cell recording configurations of the patch clamp technique. […] The liquid junction potential was determined as 12 mV; the voltages were not adjusted. […]
# [8] = tested on: TRPV6 I575A; test: Whole-cell patch clamp, TRPV6 I575A; assay type: cell-based, human; settings: HEK293 cells, 10 μM pal-PIP2 peptide, Figure 5C (substitution reduces the inhibition)
# Excerpt: as §4, §5
SMILES,reduction of nuclear NFAT localization [1],nuclear targeting of NFAT [2],current inhibition vs TRPV6 WT ([3]; 0.1 μM cis-22a),"current inhibition vs TRPV6 WT ([3]; 10 μM cis-22a, after 0.1 μM)",current inhibition vs TRPV6 WT ([4]; 0.1 μM cis-22a),"current inhibition vs TRPV6 WT ([4]; 10 μM cis-22a, after 0.1 μM)",reduction of nuclear NFAT localization [5],reduction of nuclear NFAT localization [6],sensitivity to peptide-based PIP2 sequestration vs WT [7],inhibitory effect of pal-PIP2 peptide vs WT [8]
Cc1cccc(C2CCC(N3CCN(c4cccnc4)CC3)CC2)c1.O=C(O)C(F)(F)F (stereo not drawn) [cis-22a],failed to significantly reduce NFAT nuclear localization,almost absent,significantly reduced,significantly reduced inhibition,significantly reduced,significantly reduced inhibition,further significant reduction in nucleus-targeted NFAT,further significant reduction in nucleus-targeted NFAT,–,–
CCCCCCCCCCCCCCCC(=O)N[C@@H](Cc1c[nH]cn1)C(=O)N[C@@H](CCCNC(=N)N)C(=O)N[C@@H](CCC(N)=O)C(=O)N[C@@H](CCCCN)C(=O)N[C@@H](Cc1c[nH]cn1)C(=O)N[C@@H](Cc1ccccc1)C(=O)N[C@@H](CCC(=O)O)C(=O)N[C@@H](CCCCN)C(=O)N[C@@H](CCCNC(=N)N)C(=O)N[C@@H](CCCNC(=N)N)C(N)=O [pal-PIP2 peptide] (Palmitoyl-HRQKHFEKRR-NH2),–,–,–,–,–,–,–,–,significantly reduced sensitivity,interfered with the inhibitory effect of the pal-PIP2 peptide
